Laboratory results taken from patent publication US6384065B1, “Spiro compounds or salts thereof and preventives/remedies for autoimmune diseases and AP-1 inhibitors containing the same” (Toyama Chemical Co., Ltd., priority 1998, dated 2002).

What was measured:
mouse 3T3 fibroblast = assay: XTT assay (cytotoxicity test); assay type: cell-based; conditions: 16 hours culture, T/C %
Protocol: (§1) A reporter plasmid was prepared according to the method of R. I. Scheinman et al. [Mol. Cell. Biol., Vol. 15, Pages 943-953 (1995)]. That is, a plasmid p(TRE)5TK-Luc was constructed by connecting a promoter of thymidine kinase (TK) at an upstream site of luciferase (Luc) gene which is a reporter gene and a 5-times repeated TRE sequence at a further upstream site thereof. The plasmid was co-transfected simultaneously with p3′SS plasmid (prepared by Stratagene Co.) by the electrotranspolation method onto mouse 3T3 fibroblast (ATCC: CCL-163) cultured in a Dulbecco's modified Eagle's medium (DMEM) containing 10% fetal calf serum (FCS). Then the cells were cultured in DMEM containing 10% FCS and 100 μg/ml of Hygromycin B. Using the expression of Hygromycin-resistant gene contained in p3′SS as an indicator, cell strains of the transfectant into which the objective plasmid had been introduced stably were selected. Furthermore in the test mentioned below, cell strains showing expression of Luc gene under stimulation of 12-O-tetradecanoylphorbol 13-acetate (TPA, prepared by Sigma Co.) were used, and DMEM containing 10% FCS and 100 μg/ml of Hygromycin B was used for the culture of cells.
The same culture plate as above was prepared, and test compound and TPA were added under the same conditions as above, after which a culture was carried out for 16 hours. The end of cluture, XTT reagent prepared according to the method of D. A. Scudievo [Cancer Res., Vol. 48, Pages 4827-4833 (1988)] was added and made to react for a prescribed period of time. Then, the amount of formazan formed by alive cells was analyzed by measuring absorbance at 450 nm using a micro plate reader. In this test, a decrease in absorbance is observed when the test compounds show a cytotoxicitic or a growth inhibitory activity. Cell viability (T/C %) was determined according to the following formula:
Cell Viability Rate (T/C %)=(Absorbance of well to which compound is added/Absorbance of well to which the compound was not added)×100
(§2) The compounds of Example No. 1, 6(3), 6(5), 13, 15, 17, 18(1), 18(8), 20(1) and 20(2) were converted to sodium salts according to the method of Example 42, and then used for the assay.

[1] = tested on: transcription factor AP-1; assay: Luciferase assay (TPA-stimulated p(TRE)5TK-Luc reporter transfectant); assay type: cell-based; conditions: Mus musculus, TPA stimulation 16 hours, Luc activity, read-out: Inhibition rate (%); for inhibition at 100 µg/mL: 100 μg/ml test compound; for inhibition at 30 µg/mL: 30 μg/ml test compound
Protocol: as §1
The cells prepared above were suspended in culture medium, and plated 96 well-plate at 1×10^4 cells/0.1 ml. After culturing it overnight, 50 μl of test compounds solution and 40 μl of culture medium were added, and incubated. After one hour 10 μl of 200 ng/ml TPA solution was added and the culture was continued for an additional 16 hours to stimulate the cells. The end of cluture, the cells were recovered, and cell lysis solutions were obtained. The Luc activity of the cell lysates was measured with a chemilluminescent detection kit (Pica Gene; manufactured by Toyo Ink Co.). The suppressive effect of each test compound could be assessed as a decrease of Luc activity, and the inhibition rate (%) was calculated according to the following formula:
Inhibition rate (%)=(1−Luc activity of cells to which the compound is added/Luc activity of cells to which the compound is not added)×100
as §2

[2] = tested on: type II collagen-induced arthritis; assay: Type II collagen-induced arthritis in mice (arthritis score, joint-bone destruction score); assay type: in vivo, DBA/1J mice; conditions: 100 mg/kg orally once every day from day 21 to day 35, mean
Protocol: The compound of Example 20 (1) was tested for the effect on type II collagen-induced arthritis, using 8 weeks old, male DBA/1J mice (Japan Charles River). Emulsion was prepared by mixing an equal volume of bovine type II collagen (prepared by Koken) in 0.1N acetic acid (2 mg/ml) and Freund's complete adjuvant (prepared by Nacalai Tesque). Arthritis was induced by intradermal injection of 0.2 ml (the quantity of antigen: 200 μg/head) of the emulsion into the skin of the tail root twice (day 0 and day 21). The test compound was suspended in 0.5% solution of methyl cellulose, and 100 mg/kg was orally administered once every day from day 21 to day 35. […] Severity of the arthritis was scored 0: no change, 1: only one or two swelling of the joints or slight swelling of the ankle or toes, 2: swelling and/or rubor in further joints, 3: extensive swelling of whole paw, and the maximum possible score for arthritis was 12 points. As to the severity of destruction of joints and bones, X ray photographs of four paws were taken (Softex), and severity of destruction in the second to fifth articulationes interphalangeae, first to fifth articulationes metacarpophalangeae and metatarsophalangeae, and calcaneus was scored by 0 or 1 in accordance with presence or absence of destruction, and the severity of destruction in the carpus and tarsal was scored by 0 to 3. […]

Structure (SMILES) | Cell viability (%) (mouse 3T3 fibroblast; 100 μg/ml test compound) | inhibition at 100 µg/mL [1] | Cell viability (%) (mouse 3T3 fibroblast; 30 μg/ml test compound) | inhibition at 30 µg/mL [1] | Joint-bone destruction score ([2]; X ray of four paws, control 20 ± 3) | Arthritis score ([2]; maximum score 12, control 10 ± 1)
CCN(CC)C(=O)c1ccc(C(=O)N2[C@H](C(=O)O)CSC23CCC(Oc2ccc(C(C)C)cc2)CC3)cc1 (stereo partly drawn) [41 (6), (3R)-4-{4-[(Diethylamino)carbonyl]benzoyl}-8-(4-isopropylphenoxy)-1-thia-4-azaspiro[4.5]decane-3-carboxylic acid] | 97% | 49% | – | – | – | –
CC(C)CC=C1CCC2(CC1)SC(CC(=O)OC(C)C)C(=O)N2CC(=O)O (centres unmarked) [Example 47, 2-[2-(2-isopropoxy-2-oxoethyl)-8-(3-methylbutylidene)-3-oxo-1-thia-4-azaspiro[4.5]decan-4-yl]-acetic acid] | – | – | 83% | 47% | – | –
Cc1nc(C(=O)N2[C@H](C(=O)O)CSC23CCC(Oc2ccc(C(C)C)cc2)CC3)cs1 (stereo partly drawn) [41 (3), (3R)-8-(4-Isopropylphenoxy)-4-[(2-methyl-1,3-thiazol-4-yl)carbonyl]-1-thia-4-azaspiro[4.5]decane-3-carboxylic acid] | 97% | 80% | – | – | – | –
CC(C)c1ccc(OC2CCC3(CC2)SC(C)(C)[C@@H](C(=O)O)N3C(=O)c2ccccc2)cc1 (stereo partly drawn) [20 (2), (3R)-4-Benzoyl-8-(4-isopropylphenoxy)-2,2-dimethyl-1-thia-4-azaspiro[4.5]decane-3-carboxylic acid] | 92% | 93% | – | – | – | –
COc1ccc(C(=O)N2[C@H](C(=O)O)CSC23CCC(Oc2ccc(C(C)C)cc2)CC3)cc1 (stereo partly drawn) [41 (5), (3R)-8-(4-Isopropylphenoxy)-4-(4-methoxybenzoyl)-1-thia-4-azaspiro[4.5]decane-3-carboxylic acid] | 90% | 94% | – | – | – | –
CC(C)c1ccc(OC2CCC3(CC2)SC[C@@H](C(=O)O)N3C(=O)c2ccc[nH]2)cc1 (stereo partly drawn) [Example 40, (3R)-8-(4-isopropylphenoxy)-4-(1H-2-pyrrolylcarbonyl)-1-thia-4-azaspiro[4.5]decane-3-carboxylic acid] | 108% | 91% | – | – | – | –
CC(C)c1ccc(OC2CCC3(CC2)SC[C@@H](C(=O)O)N3C(=O)c2cnc3ccccc3c2)cc1 (stereo partly drawn) [41 (2), (3R)-8-(4-Isopropylphenoxy)-4-(3-quinolylcarbonyl)-1-thia-4-azaspiro[4.5]decane-3-carboxylic acid] | 71% | 94% | – | – | – | –
CCOC(=O)[C@@H]1CSC2(CCC(Oc3ccc(C(C)C)cc3)CC2)N1C(=O)c1ccccc1 (stereo partly drawn) [Example 21, ethyl (3R)-4-benzoyl-8-(4-isopropylphenoxy)-1-thia-4-azaspiro[4.5]decane-3-carboxylate] | – | – | 74% | 28% | – | –
CC(C)c1ccc(OC2CCC3(CC2)SC[C@@H](C(=O)O)N3C(=O)c2cnccn2)cc1 (stereo partly drawn) [41 (4), (3R)-8-(4-Isopropylphenoxy)-4-(2-pyrazinylcarbonyl)-1-thia-4-azaspiro[4.5]decane-3-carboxylic acid] | 82% | 96% | – | – | – | –
CC(C)CC=C1CCC2(CC1)SC(C)(C)[C@@H](C(=O)O)N2C(=O)CCC(C)C (stereo partly drawn) [Example 44, (3R)-2,2-dimethyl-8-(3-methylbutylidene)-4-(4-methylpentanoyl)-1-thia-4-azaspiro[4.5]decane-3-carboxylic acid] | – | – | 75% | 62% | – | –
CC(C)c1ccc(OC2CCC3(CC2)SC[C@@H](C(=O)NCCC(=O)O)N3C(=O)c2ccccc2)cc1 (stereo partly drawn) [Example 29, 3-({[(3R)-4-benzoyl-8-(4-isopropylphenoxy)-1-thia-4-azaspiro[4.5]-decan-3-yl]carbonyl}amino)-propionic acid] | 110% | 92% | – | – | – | –
CC(C)c1ccc(OC2CCC3(CC2)SC(C)(C)[C@H](C(=O)O)N3C(=O)c2ccccc2)cc1 (stereo partly drawn) [20 (1), (3S)-4-Benzoyl-8-(4-isopropylphenoxy)-2,2-dimethyl-1-thia-4-azaspiro[4.5]decane-3-carboxylic acid] | – | – | 98% | 72% | 14 ± 3 | 8 ± 1
